Literature values in patent US6491617B1, “Medical devices that resist restenosis” (St. Jude Medical, Inc., priority 1999, dated 2002).

Conditions: nitric oxide-releasing agent, test system not stated

For `NCCCNCCCCNCCCN` [Spermine, H2N(CH2)3NH2^+(CH2)4N[NONO]^−(CH2)3NH2], the IC50 (read-out: IC-50 concentration, i.e., a concentration at 50 percent effectiveness) is listed as 19.7 nM.
In the case of NaO[NONO]Na [nitro percide], the effective concentration is listed as 25 nM.
